# Results taken from patent US10168342B2, “Lipid probes and uses thereof” (THE SCRIPPS RESEARCH INSTITUTE, priority 2015, dated 2019).
# What was measured:
# [1] = biological target: T1, AEA-DA-modified peptides in Neuro2a cells (Mus musculus, UniProt Q02819); assay: isoTOP-ABPP mapping of AEA-DA-modified peptides in Neuro2a cells; assay type: cell-based; details: for Times observed: probe 100 μM, 12 replicates
# T1 construct: endogenous in cells; host or cells: Neuro2a
# T1 sequence (Q02819 26-459): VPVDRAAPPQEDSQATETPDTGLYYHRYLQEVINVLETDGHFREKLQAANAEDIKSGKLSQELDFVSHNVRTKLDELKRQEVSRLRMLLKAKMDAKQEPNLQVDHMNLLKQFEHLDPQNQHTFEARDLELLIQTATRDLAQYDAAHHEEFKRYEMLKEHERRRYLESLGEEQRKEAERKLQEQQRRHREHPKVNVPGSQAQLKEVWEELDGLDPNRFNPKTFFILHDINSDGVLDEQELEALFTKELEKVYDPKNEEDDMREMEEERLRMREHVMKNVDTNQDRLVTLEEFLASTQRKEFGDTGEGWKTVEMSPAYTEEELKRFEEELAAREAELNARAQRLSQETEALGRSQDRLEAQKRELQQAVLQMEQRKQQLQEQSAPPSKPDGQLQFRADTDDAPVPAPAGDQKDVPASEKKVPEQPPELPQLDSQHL
# Experimental: Experiments were performed as described above using the AEA-DA probe (100 μM) in 3.0 mL of DMEM (serum-free) and Neuro2A cells without (twelve replicates; ten biological; two technical). For the ligand competition study, cells were treated with the AEA-DA probe (50 μM) and DMSO or MJN228 (50 μM) treatment. Cells were harvested and processed as described above. Whole cell lysates (500 μL at 1.5 mg/mL) were processed for MS analysis using the previously described isoTOPABPP protocol (Speers and Cravatt, 2005). In brief, for global mapping of AEA-DA-modified peptides, proteomes were split into two fractions, which were subjected to click chemistry conditions with either light or heavy isotopically labeled TEV-tags. For the […] competition study, proteomes were subjected to click chemistry conditions with either light (DMSO) or heavy (MJN228-treated) TEV-tags. Light and heavy-tagged proteomes in each experiment were then combined, and, following enrichment of probe-labeled targets using streptavidin beads, proteins were digested on-bead with trypsin and remaining immobilized peptides released with a subsequent TEV protease digestion. The resulting probe-modified peptides were collected for MS analysis, which was performed as described above with differences in the salt bumps applied in the chromatographic gradients which were 0%, 30%, 60%, 90% and 100% NH4OAc (500 mM). The protein identification searches of the MS data were performed using the same software packages described above with the following changes applied to identify the peptides modified with AEA-DA and the cleaved TEV tag. All amino acids were considered as possible residues for modification. To facilitate the computational searches, sets of up to 3 amino acids were searched using ProLuCID and filtered with DTASelect as described above. The mass of the modification used to search for probe-modified peptides was +727.4745 m/z for the probe plus the light TEV-tag and +733.4831 m/z for the heavy counterpart. […] For global mapping experiments, AEA-DA-modified peptides were expected to show a ratio of “heavy” and “light” signals of ˜1.0 (0.5<ratio<2.0) and were required to have been detected in at least two of the twelve replicate experiments.
# In some embodiments, the ligands are tested for their interaction to NUCB1 in cells. […] MJN228 inhibited lipid probe binding to NUCB1 at concentrations as low as 10 μM, with near-maximal inhibition observed at ˜25 μM (FIG. 16A). […] The site of arachidonoyl probe (and MJN228) binding to NUCB1 was mapped in cells, which was accomplished by treating Neuro2A cells with the AEA-DA probe (50 μM) in the presence of DMSO or MJN228 (50 μM), followed by UV irradiation, CuAAC conjugation of AEA-DA-labeled proteins to isotopically light (DMSO-treated cells) and heavy (MJN228-treated cells) azide-biotin tags featuring a TEV protease-cleavable linker, and LCMS/MS analysis using a previously described platform, termed isoTOP-ABPP, for mapping probe-modified peptides in proteomes (Speers and Cravatt, 2005). A AEA-DA labeled peptide was identified for NUCB1 (aa 53-68) in DMSO-treated cells and the signals for this peptide were substantially (>5-fold) reduced in MJN228-treated cells (FIG. 15C). This AEA-DA labeling site was confirmed using recombinant, purified hNUCB1 and tandem MS analysis which narrowed down the site of probe modification to His67 (FIGS. 16B and 16C).
# [2] = biological target: T2, A-DA lipid probe targets in A549 cells (Homo sapiens, UniProt P30519); assay: In situ competitive SILAC profiling with A-DA probe in (PMA-stimulated) A549 cells; details: A549 cells, A-DA probe
# T2 sequence (P30519 1-316): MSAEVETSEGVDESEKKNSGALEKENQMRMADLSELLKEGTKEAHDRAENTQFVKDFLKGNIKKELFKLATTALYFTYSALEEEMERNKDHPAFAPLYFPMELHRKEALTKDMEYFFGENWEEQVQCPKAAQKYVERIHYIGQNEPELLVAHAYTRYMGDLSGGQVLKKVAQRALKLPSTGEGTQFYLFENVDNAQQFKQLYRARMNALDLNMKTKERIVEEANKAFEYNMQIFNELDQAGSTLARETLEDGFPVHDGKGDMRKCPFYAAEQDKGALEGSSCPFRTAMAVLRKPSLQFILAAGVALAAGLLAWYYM
# [3] = biological target: T3, A-DA lipid probe targets in A549 cells (Homo sapiens, UniProt Q9BTX1); assay: as above; details: A549 cells, A-DA probe
# T3 sequence (Q9BTX1 1-674): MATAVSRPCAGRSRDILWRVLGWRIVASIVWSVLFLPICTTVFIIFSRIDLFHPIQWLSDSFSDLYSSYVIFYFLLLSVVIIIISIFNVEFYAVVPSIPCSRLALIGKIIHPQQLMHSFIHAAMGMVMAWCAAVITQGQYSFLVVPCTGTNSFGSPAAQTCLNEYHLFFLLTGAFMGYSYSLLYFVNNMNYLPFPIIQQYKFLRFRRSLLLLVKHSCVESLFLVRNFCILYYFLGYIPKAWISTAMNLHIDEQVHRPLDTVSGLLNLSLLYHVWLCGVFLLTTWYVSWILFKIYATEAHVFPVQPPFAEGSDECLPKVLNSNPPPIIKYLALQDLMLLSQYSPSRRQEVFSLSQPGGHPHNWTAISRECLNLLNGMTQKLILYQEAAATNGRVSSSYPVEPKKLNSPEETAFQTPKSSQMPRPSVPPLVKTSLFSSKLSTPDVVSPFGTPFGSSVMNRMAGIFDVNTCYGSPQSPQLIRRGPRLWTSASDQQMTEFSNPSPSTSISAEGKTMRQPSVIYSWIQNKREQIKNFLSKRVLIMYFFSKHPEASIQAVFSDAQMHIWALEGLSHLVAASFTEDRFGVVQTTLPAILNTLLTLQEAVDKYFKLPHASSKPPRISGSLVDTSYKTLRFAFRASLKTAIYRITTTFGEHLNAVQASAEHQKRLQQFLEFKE
compound,measurement,setting,value
"C#CCCCC1(CC/C=C\C/C=C\C/C=C\CCCC(=O)NCCO)N=N1 [AEA-DA, (5Z,8Z,11Z)-N-(2-hydroxyethyl)-14-(3-(pent-4-yn-1-yl)-3H-diazirin-3-yl)tetradeca-5,8,11-trienamide]",Times observed,"[1]; AEA-DA-modified peptide NUCB1 Q02819 53-69, SEQ ID NO 71",11
same,Times observed,"[1]; AEA-DA-modified peptide NUCB1 Q02819 246-275, SEQ ID NO 70",4
"O=C(/C=C/c1cccnc1)NCCCCC1CCN(C(=O)c2ccccc2)CC1 [FK-866, reference compound]","SILAC ratio, HMOX2 (P30519)",[2]; competitor 25 μM,1.3
same,"SILAC ratio, TMEM48 (Q8VCB1)",[3]; competitor 25 μM,1.2
"CN1CCN(C(=O)c2[nH]c3ccc([N+](=O)[O-])cc3c2-c2ccccc2)CC1 [MJN228, (4-Methylpiperazin-1-yl)(5-nitro-3-phenyl-1H-indol-2-yl)methanone]",reduction of signals of AEA-DA labeled NUCB1 peptide (aa 53-68),"[1]; Neuro2A cells, AEA-DA 50 μM, MJN228 50 μM",> 5 fold
C=CCN(C)CCCCCCOc1ccc(C(=O)c2ccc(Br)cc2)c(F)c1 [Ro488071],"SILAC ratio, HMOX2 (P30519)",[2]; competitor 5 μM,1.3
same,"SILAC ratio, HMOX2 (P30519)",[2]; competitor 50 μM,3.4
same,"SILAC ratio, TMEM48 (Q8VCB1)",[3]; competitor 5 μM,1.5
same,"SILAC ratio, TMEM48 (Q8VCB1)",[3]; competitor 50 μM,2.8
